According to patent US7670806B2, “ADP-ribosyl acceptor hydrolase 3 (ARH3) polypeptides and methods of use” (The United States of America as represented by the …, priority 2005, dated 2010):
Blank lines part the entries; values can stand above or below the compound they belong to.

Experiments:
ARH3 = target: T1, ARH3 (Mus musculus, UniProt Q8CG72); assay: Inhibition of ARH3-catalyzed hydrolysis of O-acetyl-ADP-ribose; type: biochemical
T1 construct: The entire coding regions were ligated into pGEX-2T expression vector; GST (N); made in house; host or cells: E. coli BL21 Rosetta
T1 sequence (Q8CG72 1-370): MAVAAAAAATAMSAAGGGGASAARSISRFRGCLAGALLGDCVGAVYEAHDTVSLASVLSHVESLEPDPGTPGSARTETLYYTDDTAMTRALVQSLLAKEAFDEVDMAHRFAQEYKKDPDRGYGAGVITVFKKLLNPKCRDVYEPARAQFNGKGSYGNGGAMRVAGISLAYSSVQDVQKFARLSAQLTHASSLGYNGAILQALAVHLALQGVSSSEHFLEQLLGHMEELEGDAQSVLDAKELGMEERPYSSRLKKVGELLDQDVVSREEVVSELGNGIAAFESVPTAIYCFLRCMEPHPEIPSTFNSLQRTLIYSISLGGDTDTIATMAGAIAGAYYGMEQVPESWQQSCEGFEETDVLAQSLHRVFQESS
Description: FIG. 15A is a graph of the results from an assay with 2 pmol of ARH3 and the indicated amount of ADP-ribose (●) or β-NAD (∘) in 200 μl for 2 h at 30° C., as described in FIG. 11B. FIG. 15B is a graph of the inhibition of ARH3 hydrolysis by ADP-ribose data schematized for Lineweaver-Burk plot.
Mouse ARH3 (2 pmol) and 2.5 μM O-acetyl-[^14C]ADP-ribose (5,000 cpm) in 200 μl of buffer containing 50 mM potassium phosphate (pH 7.0), 10 mM MgCl2 and 5 mM DTT were incubated for 2 h at 30° C., before separation of substrate and products using RP-HPLC as described below.
Hydrolysis of O-acetyl-[^14C]ADP-ribose catalyzed by ARH3. Assays containing the indicated concentration of O-acetyl-[^14C]-ADP-ribose (0.1 to 2 nmol, 1,000 to 20,000 cpm) and 1.5 pmol of ARH3 in 200 μl of buffer (50 mM KPO4 (pH 7.0), 10 mM MgCl2, 5 mM DTT) were incubated at 30° C. for 20 min. Substrate and products were separated using RP-HPLC. Amounts of product were corrected for ADP-ribose produced in the absence of ARH3 before calculation of hydrolysis rates.
ADP-ribose inhibited ARH3-catalyzed hydrolysis of 2.5 μM O-acetyl-ADP-ribose, ˜50% at a concentration of ca. 10 μM.

[1] = Poly(ADP-ribose) hydrolysis (autoradiography, high resolution PAGE, HPLC); type: biochemical; conditions: [32P]poly(ADP-ribose) or poly(ADP-ribose)PARP; 37° C.; autoradiography / PAGE / HPLC
Description: Poly(ADP-ribose) hydrolysis by autoradiography. [^32P]poly(ADP-ribose)PARP (500 ng of PARP with poly(ADP-ribose) was incubated (37° C., 2 h) with 2 μM ARH in 25 μl of 50 mM potassium phosphate buffer, pH 7.5, with or without 10 mM MgCl2 and/or 5 mM DTT. Reactions were stopped by adding 6 μl of 5× Laemmli buffer. Samples (20 μl) of proteins were separated by SDS-PAGE in 4-20% gels and transferred to nitrocellulose membranes that were exposed to X-ray film (Kodak) for 10 h.
Hydrolysis of poly(ADP-ribose) by PARG and ARH3. Purified [^32P] poly(ADP-ribose) (5.5×10^5 cpm, ˜300 nM ADP-ribose) was incubated for the indicated time at 37° C. in 25 μl of 50 mM potassium phosphate, pH 7.5, containing 10 mM MgCl2 and 5 mM DTT with enzyme or other additions as indicated and terminated by addition of 25 μl of 2× electrophoresis buffer (Invitrogen). [^32P]AMP was generated by incubation (37° C., 3 h) of 10 μM [^32P] NAD (10 μCi/reaction) with pyrophosphatase (40 units/mg from SIGMA, 1 mg/ml) in 25 μl of 50 mM KPO4, pH 7.5, and 10 mM MgCl2. [^32P] […]
Poly(ADP-ribose)PARP was used as substrate to assay potential poly(ADP-ribose) hydrolase activities of recombinant ARH1, 2 or 3. […] Fractions (1 ml) were collected for liquid scintillation counting to quantify [^14C]ADP-ribose, which was eluted in fractions from 34 min to 43 min. […]

[2] = Rafty et al. (2002), cited from earlier work

- Inhibition of ARH3-catalyzed hydrolysis of O-acetyl-ADP-ribose (ARH3; 2.5 μM O-acetyl-ADP-ribose, inhibitor at ca. 10 μM, 2 pmol ARH3, 2 h at 30° C.): ~50%
- Ki (ARH3; Lineweaver-Burk plot, substrate O-acetyl-ADP-ribose): 8.6 µM
Compound: Nc1ncnc2c1ncn2[C@@H]1O[C@H](COP(=O)(O)OP(=O)(O)OC[C@H]2OC(O)[C@H](O)[C@@H]2O)[C@@H](O)[C@H]1O (some centres unmarked) [ADP-ribose]

Compound: ARH1: 39-kDa ADP-ribose-(arginine) protein hydrolase, recombinant mouse or human
- Poly(ADP-ribose) hydrolysis (in words) [1]: did not

Compound: murine Nudix: murine Nudix family ADP-ribose pyrophosphatase (Rafty et al. 2002)
- kcat, O-acetyl-ADP-ribose [2]: 0.78 ± 0.18 s⁻¹
- Km ([2]; read-out: Km for O-acetyl-ADP-ribose): 45 ± 0.9 µM
